Experimental data taken from patent publication US8389247B2, “Physiogenomic method for predicting diabetes and metabolic syndromes induced by psychotropic drugs” (priority 2006, dated 2013).

Tests used:
[1] = Physiogenomic SNP association screen: single-SNP coefficients for metabolic syndrome outcomes in patients on psychotropic drugs
Source text: Various SNPs associated with, for example, the observation of various parameters of metabolic syndromes in patients on psychotropic drugs were screened. The endpoints analyzed were the blood levels of LDL, HDL, and glucose; blood pressure; body mass index; waist circumference; and metabolic syndromes index. The physiogenomic model was developed using the following procedure: 1) Establish a covariate model using only the demographic and clinical variables, 2) Screen for associated genetic markers by testing each SNP against the unexplained residual of the covariate model, and 3) Establish a revised model incorporating the significant associations from the SNP screen. All models are simple linear regression models, but other well-known statistical methods are contemplated to be useful.
In the SNP screen (step 2), the p-values for each SNP were obtained by adding the SNP to the covariate model and comparing the resulting model improvement with up to 10,000 simulated model improvements using the same data set, but with the genotype data randomly permuted to remove any true association. This method produces a p-value that is a direct, unbiased, and model-free estimate of the probability of finding a model as good as the one tested when the null hypothesis of no association is true. All SNPs with a screening p-value of better than 0.003 were selected to be included in the physiogenomic model (step 3).
Data Analysis. Covariates were analyzed using multiple linear regression and the stepwise procedure. An extended linear model was constructed including the significant covariate and the SNP genotype. SNP genotype was coded quantitatively as a numerical variable indicating the number of minor alleles: 0 for major homozygotes, 1 for heterozygotes, and 2 for minor homozygotes. The F-statistic p-value for the SNP variable was used to evaluate the significance of association. The validity of the p-values were tested by performance of an independent calculation of the p-values using permutation testing. To account for the multiple testing of multiple SNPs, adjusted p-values were calculated using Benjamini and Hochbergs false discovery rate (FDR) procedure [Reinere A, Yekutiele D, Benjamini Y: Identifying differentially expressed genes using false discovery rate controlling procedures. Bioinformatics 19:368-375 (2003); Benjamini Y, Hochberg Y: Controlling the false discovery rate: a practical and powerful approach to multiple testing. Journal of the Royal Statistical Society, Series B 57:289-300 (1995); Benjamini Y, Hochberg Y: On the adaptive control of the false discovery rate in multiple testing with independent statistics. Journal of Educational and Behavioral Statistics 25:60-83 (2000)]. In addition, the power for detecting an association based on the Bonferroni multiple comparison adjustment was evaluated. For each SNP, the effect size in standard deviations that was necessary for detection of an association at a power of 80% (20% false negative rate) was calculated using the formula: […]

[2] = Outcome variables of patients on each psychotropic drug broken down by demographic factors (Covariates tables); assay type: in vivo, human
[3] = Source text: b. Model Building. […] A model was developed for the purpose of predicting a given response (Y) to psychotropic drugs. A linear model for subjects in a group of patients subjected to psychotropic drugs was used in which the response of interest can be expressed as follows:
[formula] where Mi are the dummy marker variables indicating the presence of specified genotypes and Dj are demographic and clinical covariates. The model parameters that are to be estimated from the data are R0, αi and βj. […] S-plus provides very good support for algorithms that provide these estimates for the initial linear regression models, as well other generalized linear models that may be used when the error distribution is not normal. For continuous variables, generalized additive models, including cubic splines in order to appropriately assess the form for the dose-response relationship may also be considered [Hastie T, Tibshirani R. Generalized additive models. Stat. Sci. 1: 297-318 (1986); Durrleman S, Simon R. Flexible regression models with cubic splines. Statistics in Medicine 8:551-561 (1989)].
In addition to optimizing the parameters, model refinement is performed. The first phase of the regression analysis will consist of considering a set of simplified models by eliminating each variable in turn and re-optimizing the likelihood function. The ratio between the two maximum likelihoods of the original vs. the simplified model then provides a significance measure for the contribution of each variable to the model.
Each physiotype in this particular embodiment consists of a selection of markers, and intercept value (C), and a coefficient (ci) for each marker. […] The predicted LDL response for a given individual is then given by the formula:
[formula] where C is the intercept, the ci are the coefficients and the gi are the genotypes, coded 0 for the wild type allele homozygote, 1 for the heterozygote, and 2 for the variant allele homozygote.

[4] = cited from earlier work

For `O=C1Cc2cc(CCN3CCN(c4nsc5ccccc45)CC3)c(Cl)cc2N1` [Ziprasidone, ziprasidone], the “Coeff. LDL Cholesterol” value ([1]; SNP rs40318, gene PIK3R1, allele TC, p 4.80E−02) was 22.72, the “Coeff. LDL Cholesterol” value ([1]; SNP rs1322783, gene DISC1, allele TC, p 1.26E−02) was −27.8566 and the “Coeff. LDL Cholesterol” value ([1]; SNP rs1614845, gene HRH3, allele TC, p 4.20E−02) was −21.1697. The “Coeff. LDL Cholesterol” value ([1]; SNP rs1951795, gene HIF1A, allele AC, p 2.81E−02) was 17.21, the “Coeff. LDL Cholesterol” value ([1]; SNP rs2067477, gene CHRM1, allele AC, p 4.47E−02) was −23.7833 and the “Coeff. LDL Cholesterol” value ([1]; SNP rs2228139, gene IL1R1, allele GC, p 1.74E−02) was −42.4134. The “Coeff. LDL Cholesterol” value ([1]; SNP rs2269935, gene PFKM, allele AC, p 1.38E−02) was −29.0481, the “Coeff. LDL Cholesterol” value ([1]; SNP rs2301108, gene HIF1A, allele AG, p 4.60E−03) was 27.41 and the “Coeff. LDL Cholesterol” value ([1]; SNP rs2856929, gene PKM2, allele AG, p 2.55E−02) was −21.0303. The “Coeff. HDL Cholesterol” value ([1]; SNP rs3757868, gene ACHE, allele AG, p 2.11E−02) was 9.221, the “Coeff. Ratio of Total Cholesterol to HDL Cholesterol” value ([1]; SNP rs3757868, gene ACHE, allele AG, p 2.47E−02) was −0.8869 and the “Coeff. LDL Cholesterol” value ([1]; SNP rs3816873, gene MTP, allele TC, p 2.73E−02) was −19.1531. The “Coeff. LDL Cholesterol” value ([1]; SNP rs6700734, gene TNFSF6, allele AG, p 1.15E−02) was 21.53, the “Coeff. LDL Cholesterol” value ([1]; SNP rs6967107, gene WBSCR14, allele AC, p 5.00E−02) was −28.3763 and the “Coeff. LDL Cholesterol” value ([1]; SNP rs6976017, gene CYP3A5, allele AG, p 4.34E−03) was −45.408. For the same molecule, the “Coeff. LDL Cholesterol” value ([1]; SNP rs7816340, gene ADRA1A, allele TC, p 4.22E−02) was 24.97, the “Coeff. LDL Cholesterol” value ([1]; SNP rs10082776, gene RARG, allele AG, p 1.92E−02) was −24.15 and the LDL ([2]; Age 20-30) was 79.20. It also gave an LDL ([2]; Age 30-40) of 98.42, an LDL ([2]; Age 40-50) of 75.18 and an LDL ([2]; Age 50-60) of 135.00. For the same molecule, the LDL ([2]; Age 60-70) was 154.00, the LDL ([2]; Age <20) was 89.50 and the LDL ([2]; All) was 88.32. It also gave an LDL ([2]; Gender female) of 98.11, an LDL ([2]; Gender male) of 79.05 and an LDL ([2]; Heritage AA) of 63.17. The LDL ([2]; Heritage Cauc.) was 93.19, the “Log (TG)” value ([2]; human, in vivo) was 4.968 and the LDL ([2]; patients on the named drug) was 88.32.

In the case of `O=C1CCc2ccc(OCCCCN3CCN(c4cccc(Cl)c4Cl)CC3)cc2N1` [Arapiprazole, arapiprazole], the “Intercept (C), Blood Glucose Physiotype” value [3] is reported as “Intercept (C) = 0.3665”, the “Intercept (C), Body Mass Physiotype” value [3] is reported as “Intercept (C) = 0.1845” and the “Intercept (C), Diastolic Blood Pressure Physiotype” value [3] is reported as “Intercept (C) = −0.05506”. For the same molecule, the “Intercept (C), HDL Cholesterol Physiotype” value [3] was “Intercept (C) = −0.3706”, the “Intercept (C), LDL Cholesterol Physiotype” value [3] was “Intercept (C) = 0.2441” and the “Intercept (C), Log (TG) Physiotype” value [3] was “Intercept (C) = 0.9167”. The “Intercept (C), Systolic Blood Pressure Physiotype” value [3] was “Intercept (C) = −0.1862”, the “Intercept (C), Waist circumference Physiotype” value [3] was “Intercept (C) = −0.888” and the “Coeff. LDL Cholesterol” value ([1]; SNP rs264 LPL allele AG p 3.00E−03) was −26.5842. For the same molecule, the “Coeff. LDL Cholesterol” value ([1]; SNP rs7412 APOE allele TC p 1.42E−02) was −26.3527, the “Coeff. LDL Cholesterol” value ([1]; SNP rs140700 SLC6A4 allele AG p 1.76E−02) was 34.06 and the “Coeff. LDL Cholesterol” value ([1]; SNP rs231460 PYY allele TC p 7.02E−03) was −22.8702. The “Coeff. LDL Cholesterol” value ([1]; SNP rs701492 GAD1 allele TC p 1.25E−04) was −41.2222, the “Coeff. LDL Cholesterol” value ([1]; SNP rs1057910 CYP2C9 allele AC p 9.03E−04) was 25.75 and the “Coeff. LDL Cholesterol” value ([1]; SNP rs1176744 HTR3B allele TG p 2.77E−02) was −14.3889. The “Coeff. LDL Cholesterol” value ([1]; SNP rs1805002 CCKBR allele AG p 3.93E−02) was −32.875, the “Coeff. LDL Cholesterol” value ([1]; SNP rs1871143 GYS2 allele TG p 4.09E−02) was −14.1588 and the “Coeff. LDL Cholesterol” value ([1]; SNP rs2070937 HP allele AG p 3.68E−02) was 16.59. For the same molecule, the “Coeff. LDL Cholesterol” value ([1]; SNP rs2192752 IL1R1 allele AC p 3.35E−02) was 19.88, the “Coeff. LDL Cholesterol” value ([1]; SNP rs2227852 DRD5 allele AG p 1.36E−02) was −28.1852 and the “Coeff. LDL Cholesterol” value ([1]; SNP rs2229416 ACACA allele AG p 1.41E−02) was −29.2143. For the same molecule, the “Coeff. LDL Cholesterol” value ([1]; SNP rs2306179 GYS2 allele AG p 2.72E−02) was −15.1786, the “Coeff. LDL Cholesterol” value ([1]; SNP rs3760396 CCL2 allele GC p 4.10E−02) was −15.8942 and the “Coeff. LDL Cholesterol” value ([1]; SNP rs3762611 GABRA4 allele AG p 1.49E−02) was −18.7032. For the same molecule, the “Coeff. LDL Cholesterol” value ([1]; SNP rs3822222 CCKAR allele TC p 8.57E−03) was 24.98, the “Coeff. LDL Cholesterol” value ([1]; SNP rs4795180 ACACA allele TG p 1.41E−02) was −29.2143 and the “Coeff. LDL Cholesterol” value ([1]; SNP rs5030390 ICAM1 allele AG p 1.30E−02) was −27.8333. For the same molecule, the “Coeff. LDL Cholesterol” value ([1]; SNP rs7816340 ADRA1A allele TC p 4.36E−02) was −25.5911, the “Coeff. LDL Cholesterol” value ([1]; SNP rs9904270 RARA allele TC p 2.39E−03) was −37.1182 and the “Coeff. LDL Cholesterol” value ([1]; SNP rs10509676 CYP2C19 allele TA p 1.50E−02) was −24.25. For the same molecule, the LDL ([2]; Age 20-30, N 8) was 90.5, the LDL ([2]; Age 30-40, N 16) was 97.19 and the LDL ([2]; Age 40-50, N 8) was 94.25. It also gave an LDL ([2]; Age 50-60, N 4) of 83, an LDL ([2]; All, N 36) of 93.47 and an LDL ([2]; Heritage African Am, N 3) of 104. For the same molecule, the LDL ([2]; Heritage Caucasian, N 33) was 92.52, the LDL ([2]; female, N 10) was 87 and the BM ([2]; human, in vivo) was 86.58. The Waist ([2]; human, in vivo) was 101.34, the dBP ([2]; human, in vivo) was 75.86 and the sBP ([2]; human, in vivo) was 122.17. The LDL ([2]; male, N 26) was 95.96 and the LDL ([2]; patients on the named drug) was 93.47.

In the case of `CN1CCN(C2=Nc3cc(Cl)ccc3Nc3ccccc32)CC1` [clozapine], the “treated patients with induced weight gain, diabetes and other metabolic derangements” value [4] is listed as 50%.
